What was measured:
[1] = molecular target: T1, soluble guanylate cyclase (sGC) (Homo sapiens, UniProt Q02108+Q02153); assay: sGC-HEK-cGMP assay; assay type: cell-based; conditions: HEK293 cells, 10 min incubation, intracellular cGMP by LC/MS; for Increase in cGMP Concentration Tested at 10 μM in HEK Assay: test compound 10 μM; for Increase in cGMP Concentration Tested at 30 μM in HEK Assay: test compound 30 μM
T1 construct: endogenously expressing soluble guanylate cyclase (sGC); endogenous in cells; host or cells: HEK293
T1 sequence (Q02153 1-619): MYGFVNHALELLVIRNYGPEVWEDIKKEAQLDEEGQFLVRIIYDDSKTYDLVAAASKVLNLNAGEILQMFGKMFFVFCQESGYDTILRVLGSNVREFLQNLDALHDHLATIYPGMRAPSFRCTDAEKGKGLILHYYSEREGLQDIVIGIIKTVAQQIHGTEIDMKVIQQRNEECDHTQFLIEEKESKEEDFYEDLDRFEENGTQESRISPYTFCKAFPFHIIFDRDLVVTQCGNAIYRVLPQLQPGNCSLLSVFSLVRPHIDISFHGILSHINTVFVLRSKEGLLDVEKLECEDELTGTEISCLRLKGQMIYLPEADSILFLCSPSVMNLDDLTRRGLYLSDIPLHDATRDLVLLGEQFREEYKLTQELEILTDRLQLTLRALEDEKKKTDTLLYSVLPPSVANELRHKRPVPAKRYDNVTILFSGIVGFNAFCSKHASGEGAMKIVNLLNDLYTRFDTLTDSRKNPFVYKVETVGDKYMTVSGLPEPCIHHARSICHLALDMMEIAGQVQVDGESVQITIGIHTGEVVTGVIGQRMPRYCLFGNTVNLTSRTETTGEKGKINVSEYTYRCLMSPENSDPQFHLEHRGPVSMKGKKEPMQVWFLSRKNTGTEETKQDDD
T1 sequence (Q02108 1-690): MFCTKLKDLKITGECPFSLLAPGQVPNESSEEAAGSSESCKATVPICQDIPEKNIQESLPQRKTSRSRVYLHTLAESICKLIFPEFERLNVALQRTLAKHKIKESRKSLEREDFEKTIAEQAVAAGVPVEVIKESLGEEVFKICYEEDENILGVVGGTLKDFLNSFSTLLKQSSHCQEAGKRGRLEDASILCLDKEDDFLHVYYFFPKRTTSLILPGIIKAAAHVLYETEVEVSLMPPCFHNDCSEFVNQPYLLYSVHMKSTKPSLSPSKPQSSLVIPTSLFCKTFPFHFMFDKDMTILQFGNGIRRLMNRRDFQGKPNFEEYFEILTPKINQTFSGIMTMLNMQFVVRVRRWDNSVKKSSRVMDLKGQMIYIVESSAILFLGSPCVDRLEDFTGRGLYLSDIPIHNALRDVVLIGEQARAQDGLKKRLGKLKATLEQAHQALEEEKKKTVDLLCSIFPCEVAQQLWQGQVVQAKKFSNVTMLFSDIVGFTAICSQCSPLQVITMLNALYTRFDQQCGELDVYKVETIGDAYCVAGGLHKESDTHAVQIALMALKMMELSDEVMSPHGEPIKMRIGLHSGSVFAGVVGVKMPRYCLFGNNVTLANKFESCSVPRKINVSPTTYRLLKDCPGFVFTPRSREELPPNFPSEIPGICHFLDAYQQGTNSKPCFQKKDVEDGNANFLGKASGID
Method: Human embryonic kidney cells (HEK293), endogenously expressing soluble guanylate cyclase (sGC), were used to evaluate the activity of test compounds. Compounds stimulating the sGC receptor should cause an increase in the intracellular concentration of cGMP. […] Cells were then incubated for 15 minutes at 37° C. with 0.5 mM 3-isobutyl-1-methylxanthine (2004). Test article was then added to the assay mixture (2 μL) and incubated at 37° C. for 10 minutes. After the 10 minute incubation, the assay mixture was aspirated and 0.1M HCl (2004) was added to the cells. The plate was incubated at 4° C. for 30 minutes in the 0.1M HCl to stop the reaction and lyse the cells. The plates were then centrifuged at 1,200 g for 5 minutes at room temperature. Supernatants were collected and transferred to a new flat bottom 96 well plate for analysis. Vehicle controls were carried out using DMSO (1%). A known sGC stimulator, BAY 41-2272, was used as the positive control.
Samples were diluted with an equal volume of 1 M Ammonium Acetate (pH 7) to neutralize samples for better chromatography. A 2×cGMP standard curve was prepared in 0.1 M HCl and then diluted with an equal volume of 1 M Ammonium Acetate, with the following final concentrations in nM: 1024, 512, 256, 128, 64, 32, 16, 8, 4, 2, 1.
cGMP concentrations were determined from each sample using the LC/MS conditions (Table 2 below) and calculated standard curve. EC50 values were calculated from concentration-response curves generated with GraphPad Prism Software.

thoracic aortic rings = assay: Thoracic aortic rings assay; conditions: relaxation of male Sprague-Dawley rat aortic rings contracted with 100 ng/mL phenylephrine; read-out: EC50, thoracic aortic ring assay activity
Method: Thoracic aortic rings were dissected from anesthetized (isoflurane) male Sprague-Dawley rats weighing 275-299 g. Tissues were immediately transferred to ice-cold Krebs-Henseleit solution, which had been aerated with 95% O2 and 5% CO2 for 30 minutes. Following removal of connective tissue, aortic sections were cut into 4 rings (˜2 mm each) and suspended on 2 L-shaped hooks, with one hook fixed at the bottom of the tissue bath (Schuler Organ Bath, Harvard Apparatus) and the other connected to a force transducer (F30 Force Transducer, Harvard Apparatus). Baths contained Krebs Henseleit solution (10 mL) heated to 37° C. and aerated with 95% O2 and 5% CO2. Rings were brought to an initial tension of 0.3-0.5 g and gradually raised to a resting tension of 1.0 g over 60 minutes. Rings were rinsed with Krebs Henseleit solution (heated to 37° C. and aerated with 95% O2 and 5% CO2) at 15 minute intervals until a stable baseline was obtained. Rings were considered to be stable after a resting tension of 1.0 g was maintained (for approximately 10 minutes) without need for adjustment. Rings were then contracted with 100 ng/mL phenylephrine by adding 100 uL of a […] phenylephrine stock solution. Tissues achieving a stable contraction were then treated in a cumulative, dose dependent manner with test compounds prepared in dimethylsulfoxide (DMSO). In some cases, tissues were rinsed three times over a 5 minute period with Krebs-Heinseleit's solution (heated to 37° C. and aerated with 95% O2 and 5% CO2), allowed to stabilize at baseline, and then used for characterization of other test articles or DMSO effects. All data were collected using the HSE-ACAD software provided by Harvard Apparatus. Percent relaxation effects were calculated in Microsoft Excel using the recorded tension value of 100 ng/mL phenylephrine treatment as 0% inhibition and treatment with 100 μM 3-isobutyl-1-methylxanthine as 100% inhibition. EC50 values were calculated from concentration-response curves generated with GraphPad Prism Software.

EC50 (thoracic aortic rings) | Compound | Increase in cGMP Concentration Tested at 10 μM in HEK Assay [1] | Increase in cGMP Concentration Tested at 30 μM in HEK Assay [1]
1.3 µM | Fc1ccccc1Cn1nc(-c2ncccn2)c2c1CCCC2 [Compound I-1] | D (D represents an increase ranging from 20 fold to less than 50 fold) | D (D represents an increase ranging from 20 fold to less than 50 fold)
1.2 µM | Nc1ccnc(-c2nn(Cc3ccccc3F)c3c2CCC3)n1 [Compound I-3] | D (D represents an increase ranging from 20 fold to less than 50 fold) | E (E represents an increase ranging from 50 fold to less than 100 fold)
2 µM | Nc1ccnc(-c2nn(Cc3ccccc3F)c3c2CCCC3)n1 [Compound I-22] | D (D represents an increase ranging from 20 fold to less than 50 fold) | E (E represents an increase ranging from 50 fold to less than 100 fold)
1.2 µM | COC(=O)N(C)c1c(N)nc(-c2nn(Cc3ccccc3F)c3c2CCC3)nc1N [Compound I-37] | C (C represents an increase ranging from 10 fold to less than 20 fold) | B (B represents an increase ranging from 5 fold to less than 10 fold)
 | COc1ccccc1C(=O)N1CCc2c(c(-c3ncccn3)nn2Cc2ccccc2F)C1 [Compound I-57] | B (B represents an increase ranging from 5 fold to less than 10 fold) | C (C represents an increase ranging from 10 fold to less than 20 fold)
 | COc1cccc(C(=O)N2CCc3c(c(-c4ncccn4)nn3Cc3ccccc3F)C2)c1 [Compound I-58] | A (A represents no increase or an increase ranging from more than 0 fold to less than 5 fold) | 
0.34 to 0.95 µM | Nc1nc(-c2nn(Cc3ccccc3F)c3ncccc23)ncc1C1CC1 [Reference Cpd., BAY 41-2272, reference compound] |  | 

Reference: US20130178475A1, “sGC STIMULATORS” (IRONWOOD PHARMACEUTICALS, INC., priority 2010, published 2013)
